Test results as given in US20240336565A1, “SOLID FORMS OF OSANETANT” (Acer Therapeutics, Inc., priority 2021, published 2024).
“Also recorded” adds a separate entry of the source.

Key:
[1] = Hydration study (stirring in ethanol: water mixtures, XRPD); assay type: physicochemical
Procedure: (§1) 20 mg of osanetant p-toluenesulfonic acid Form 1 was stirred in the appropriate ethanol: water mixtures for 24 h at 25° C. Where clear solutions were observed after 1 h at 25° C., 0.5 mL of liquor was removed, and additional solid was added until a slurry was maintained. After 24 h total, the experiments were isolated by centrifugation, and the solids were analyzed by XRPD.
as §1, with “Osanetant benzenesulfonic acid” for “20 mg of osanetant p-toluenesulfonic acid”, “Form 3 (20 mg)” for “Form 1”, “was removed from the Aw 0.257 sample,” for “was removed,”

[2] = Comparative studies: 7-day stability; assay type: physicochemical; conditions: for impurities on 7-day stability: 80° C.; for solid form on 7-day stability: 7 days, elevated temperature where stated
Procedure: Osanetant p-toluenesulfonic acid Form 1, osanetant benzene sulfonic acid Form 3, osanetant naphthalene-2-sulfonic acid Form 3, and osanetant phosphoric acid Form 7 were compared. Osanetant phosphoric acid Form 7 was obtained when preparation of osanetant phosphoric acid Form 4 was repeated and found to be not reproducible, and Form 7 was determined to be a mixture of hydrates).
Thus, osanetant benzene sulfonic acid salt Form 1 and osanetant p-toluene sulfonic acid salt Form 1 were identified as advantageous salts.

[3] = Thermodynamic solubility in water and pH buffers
[4] = Solid form stability observations (scale up / polymorph work: drying, ambient conditions, aqueous media); assay type: physicochemical
Procedure: Two anhydrous forms of the osanetant p-toluenesulfonic acid were synthesized. […] Form 6, described below, was a stable anhydrous form, but hydrated in water and aqueous solvent mixtures.
Advantageously, Form 1 (hydrate) and Form 6 (anhydrous) were stable on drying. Form 1 re-hydrated at room temperature and pressure after KF analysis, when it was heated in an oven to remove the water.
The experiment was cooled to 5° C. at a rate of 0.1° C./min and stirred at 5° C. for 18 h. The slurry was isolated be Buchner filtration: 42.5 mm Ø grade 1 Whatman filter paper; fast Filtration (<30 s); the cake was washed with 1 mL of ethyl acetate; the isolated solids were dried at 40° C. under vacuum for 72 h. […]

[5] = Disproportionation study (stirring in water, XRPD, pH of liquor); assay type: physicochemical; conditions: 10 mg in 1 mL of water, 24 h at 25° C.
Procedure: After 24 h total, a white slurry was observed and was isolated by centrifugation. The solids were analyzed by XRPD. The pH of the filtered liquor was measured at 5.63. […] After 24 h total, a white slurry was observed and was isolated by centrifugation. The solids were analyzed by XRPD. The pH of the filtered liquor was measured (pH=5.09).

[6] = Salt screen: XRPD of isolated solids after drying at 40° C. and at 40° C./75% RH; assay type: physicochemical; conditions: for XRPD after drying at 40° C./75% RH: after 40° C. drying, dried at 40° C./75% RH for about 24 h, label = form after 40° C. drying; for XRPD after drying at 40° C.: isolated solids dried at 40° C. for about 24 h, label = wet form
Procedure: To approximately 20 mg of amorphous lyophilized osanetant was added 0.3 mL of solvent for liquid counterion experiments. 0.2 mL of solvent was employed for solid counterion experiments. […] To the stirring mixture was then added 1.05 mol eq. of the appropriate counterion. Where solid counterions were used, the vial which contained the counterion was washed in to the osanetant containing vial with 0.1 mL of the appropriate solvent. Additional solvent was added where necessary. The experiments were thermally cycled as follows: heated from 25 to 40° C. at a rate of 0.1° C./min; 1 h at 40° C.; Cool to 5° C. at a rate of 0.1° C.; 1 h at 5° C.; 40° C. at a rate of 0.1° C./min; […] The crystallization experiments were thermally cycled overnight, then slurries were isolated by centrifugation. XRPD analysis was carried out on any isolated solids or gums. The XRPD plate, and the isolated solids, were then dried at 40° C. for about 24 h, and XRPD analysis was repeated. The XRPD plate was then dried at 40° C./75% RH for about 24 h and XRPD analysis was again repeated. All other samples were allowed to evaporated at ambient temperature and pressure.

[7] = Hygroscopicity / dynamic vapor sorption (DVS); assay type: physicochemical
Procedure: The osanetant p-toluenesulfonic acid Form 1 solids consisted of aggregated crystals with an undefined morphology. Select peaks which can be used to characterize osanetant p-toluenesulfonic acid Form 1 include one or more of 11.4°2θ±0.2°2θ, 18.0°2θ±0.2°2θ, 19.0°2θ±0.2°2θ, 19.3°2θ±0.2°2θ, 19.8°2θ±0.2°2θ, or 21.1°2θ±0.2°2θ. In some embodiments, osanetant p-toluenesulfonic acid Form 1 is a monohydrate.

| Molecule | XRPD form after stirring in ethanol: water mixtures ([1]; 24 h at 25° C., Aw 0.507 and above / high water activity) | XRPD ([1]; slurry in ethanol:water 63.6:36.4 % v/v, calc Aw 0.745, 24 h at 25° C.) | XRPD ([1]; slurry in ethanol:water 92.9:7.1 % v/v, calc Aw 0.507, 24 h at 25° C.) | XRPD ([1]; slurry in ethanol:water 98.4:1.6 % v/v, calc Aw 0.257, 24 h at 25° C.) | solid chemical stability ([2]; 7-day stability results, overall) | impurities on 7-day stability [2] | solid form on 7-day stability [2] | solid form after thermodynamic solubility in pH buffers [3] | thermodynamic solubility in pH buffers / buffered systems [3] | hydration / form conversion in water and aqueous solvent mixtures [4] | form on drying ([4]; drying (40° C. under vacuum where stated)) | XRPD form / disproportionation after stirring in water [5] | pH of the filtered liquor [5] | XRPD after drying at 40° C./75% RH [6] | XRPD after drying at 40° C. [6] | hygroscopicity / water loss on DVS analysis [7] |
| --- | --- | --- | --- | --- | --- | --- | --- | --- | --- | --- | --- | --- | --- | --- | --- | --- |
| CC(=O)N(C)C1(c2ccccc2)CCN(CCC[C@]2(c3ccc(Cl)c(Cl)c3)CCCN(C(=O)c3ccccc3)C2)CC1.O=S(=O)(O)c1ccccc1 [osanetant benzenesulfonic acid Form 3, (R)-N-(1-(3-(1-benzoyl-3-(3,4-dichlorophenyl)piperidin-3-yl)propyl)-4-phenylpiperidin-4-yl)-N-methylacetamide benzenesulfonic acid] | conversion to osanetant benzenesulfonic acid Form 1; also recorded: converted to osanetant benzene sulfonic acid Form 1 | Form 1 | Form 1 | Form 3 | good | slight increase in impurities; also recorded: lowest impurity increase | retained form | converted to Form 1 | low | converted to osanetant benzene sulfonic acid salt form Form 1 | no change | converted to osanetant benzenesulfonic acid Form 1 | 5.09 | retained; also recorded: stable; also recorded: Form 3 | Form 3 |  |
| (R)-N-(1-(3-(1-benzoyl-3-(3,4-dichlorophenyl)piperidin-3-yl)propyl)-4-phenylpiperidin-4-yl)-N-methylacetamide naphthalene-2-sulfonic acid [osanetant naphthalene-2-sulfonic acid Form 3] |  |  |  |  |  | increase in impurities | stable solid form |  |  |  |  |  |  | retained; also recorded: stable; also recorded: Form 3 | retained; also recorded: Form 3 | more hygroscopic |
